Assay results: patent US7749526B2, “Vermin-repellant compositions and compounds” (Novartis AG, priority 2002, dated 2010)

Experiments:
[1] = tested on: ticks of the genus Ixodes ricinus; test: In-vivo comparison on dogs of anti-tick action following spray application; conditions: Beagle dogs; for anti-tick activity in the course of 3 successive days (in words): single spray application
Description: In-vivo comparison on dogs in respect of the anti-tick action of 2-propyl-pentanoic acid-bis-(2-methoxyethyl)-amide according to the present invention with DEET (in the form of PARAPIC DOG® (a tick repellent containing DEET)) following spray application.
The following formulations of active ingredient are used in the test which follows: […]
Prior art composition of the Parapic anti-tick spray: • active substance: 15% N,N-Diethyl-3-methylbenzamide (DEET); 15% • ethylbutylacetylaminopropionate (EBMP), isopropanol, methacrylic acid copolymer, carbamide, fragrance (perfume).
Inventive composition of the 2-propyl-pentanoic acid-bis-(2-methoxyethyl )-amide spray: active substance: 2-propyl-pentanoic acid-bis-(2-methoxyethyl )-amide 4.5%; Pluronic F6® 2.0%; water 10.0%, isopropanol ad 100.0%.
The aim of the test is to make a comparison, under natural conditions, of the commercially available anti-vermin product Parapic Dog® with a typical representative of a compound of formula (I), namely 2-propyl-pentanoic acid-bis-(2-methoxyethyl)-amide. According to the packaging information one should reach with Parapic Dog® an 80% anti-tick protection over a period of 48 hours. The active ingredient of Parapic Dog® is DEET, which is the chemical substance N,N-Diethyl-3-methylbenzamide. Products based on the active ingredient DEET, such as Parapic Dog® are widely used against ticks on dogs and cats, and also on humans. Actually, the majority of the currently used anti-tick products is based on DEET, and the mostly used product in dogs is said Parapic Dog®.
Test Protocol: 12 Beagle dogs are divided into groups of 4. To distinguish them, each dog is given a numbered label. Group 1 is treated with a 4.5% 2-propyl-pentanoic acid-bis-(2-methoxy-ethyl)-amide spray (3645mg a.i./m^2). Group 2 is treated with Parapic Dog®-Spray ([…] DEET/3645 mg a.i./m^2). Group 3 remains untreated and serves as a control.
All twelve dogs are taken on 3 successive days to a wooded plot infected with ticks of the genus Ixodes ricinus and are left to run around there. They are free to move around there for 2 hours. An evaluation is made directly after returning from the wood. The two-hour walks are repeated on the next 2 days without the dogs being treated again, and the evaluation is again made directly after returning from the wood. This is effected by carefully searching the fur and the skin of each animal for ticks adhered thereto. The ticks are counted and compared with the number of ticks in the control group.

vermin = conditions: volatilizes rather rapidly; cited from earlier work
[2] = tested on: parasite to be tested, e.g. ticks; test: Arena test method for testing vermin-repellent substances; conditions: 1 to 100 μg/cm^2 on filter paper; video evaluation versus control and DEET standard
Description: Arena Test Method for Testing Vermin-repellent Substances
This method is carried out in titre plates having 6 wells with a cross-section of 5 cm each, using a computer-supported video system. Each well of the titre plate is lined with a circular filter paper or another suitable carrier material. The substance of formula (I) to be tested is dissolved in methanol, acetonitrile or another suitable solvent, with ultrasound treatment and heating being employed for poorly-soluble substances. In an amount of 1 to 100 μg/cm^2, the dissolved test substance is placed in the centre of the filter paper on a quadrant or circular area of ca. 2.4 cm^2 radius. 4 of the 6 wells are filled with different test substances or with the same test substance in different dilutions (e.g. 1, 3.2, 5, 10 and 20 μg/cm^2) The 5th well is treated with DEET (N,N-diethyl-m-toluamide) as standard substance. The 6th well is filled with the pure solvent and serves as a control. […]
At intervals of 5 seconds, the video camera takes individual pictures of all 6 wells. […] In this way, neutral and repellent substances are determined. At the same time, the duration of activity of the test substance is determined and compared with that of the standard. […] This frequency is evaluated statistically and thus quantitatively by the Willcoxon method in a comparison with the control and with the standard. […]

[3] = tested on: Amblyomma hebraeum or variegatum (nymphs); test: Arena test in vitro against Amblyomma hebraeum or variegatum (nymphs); conditions: even up to a dilution of 3.2 μg/cm^2
Description: (§1) This method is carried out in titre plates having 6 wells with a cross-section of 5 cm each, using a computer-supported video system. Each well of the titre plate is lined with a circular filter paper or another suitable carrier material. The substance of formula (I) to be tested is dissolved in methanol, acetonitrile or another suitable solvent, with ultrasound treatment and heating being employed for poorly-soluble substances. In an amount of 1 to 100 μg/cm^2, the dissolved test substance is placed in the centre of the filter paper on a quadrant or circular area of ca. 2.4 cm^2 radius. 4 of the 6 wells are filled with different test substances or with the same test substance in different dilutions (e.g. 1, 3.2, 5, 10 and 20 μg/cm^2) The 5th well is treated with DEET (N,N-diethyl-m-toluamide) as standard substance. The 6th well is filled with the pure solvent and serves as a control. […] In this way, neutral and repellent substances are determined. At the same time, the duration of activity of the test substance is determined and compared with that of the standard. […] This frequency is evaluated statistically and thus quantitatively by the Willcoxon method in a comparison with the control and with the standard. […]

[4] = tested on: Boophilus microplus Biarra (larvae); test: Arena test in vitro against Boophilus microplus Biarra (larvae); conditions: even up to a dilution of 3.2 μg/cm^2
Description: as §1

[5] = tested on: Rhipicephalus sanguineus (nymphs); test: Arena test in vitro against Rhipicephalus sanguineus (nymphs); conditions: even up to a dilution of 3.2 μg/cm^2
Description: as §1

Structure (SMILES) | anti-tick activity in the course of 3 successive days (in words) [1] | time after which reapplication is needed (vermin) | repellent activity in arena test [2] | long-term action against Amblyomma nymphs [3] | long-term action against Boophilus larvae [4] | long-term action against Rhipicephalus sanguineus nymphs [5] | anti-tick action after 1 day ([1]; single spray application 3645 mg a.i./m^2, 2 hour walk in tick-infested wood, versus untreated control, after 1 day) [%] | anti-tick action after 2 days ([1]; single spray application 3645 mg a.i./m^2, 2 hour walk in tick-infested wood, versus untreated control, after 2 days) [%] | anti-tick action after 3 days ([1]; single spray application 3645 mg a.i./m^2, 2 hour walk in tick-infested wood, versus untreated control, after 3 days) [%]
CCN(CC)C(=O)c1cccc(C)c1 [DEET, N,N-diethyl-m-toluamide, reference compound] | drops abruptly after 2 days | ca. 2 hours |  |  |  |  |  |  | 
CCCC(CCC)C(=O)N(CCOC)CCOC [Compound no. 1.31, 2-propyl-pentanoic acid-bis-(2-methoxyethyl)-amide] | very good results |  | particularly active | especially marked long-term action | especially marked long-term action | especially marked long-term action | 100 | 98 | 79
